# Laboratory results as given in patent US4354973A, “Pyrrolo[3,4-d][2]benzazepines” (Hoffmann-La Roche Inc., priority 1981, dated 1982).
# Tests used:
# mice = test: Footshock (fighting episodes of pairs of mice); format: in vivo; details: Mus musculus; pairs of mice pretreated 1 hour prior to second shocking; 3 out of 3 pairs blocked from fighting; read-out: Footshock, 100% blocking dose
# Experimental: A pair of mice is confined under a one liter beaker placed on a grid which presents shock to the feet. At least 5 fighting episodes are elicited in a two-minute period. Pairs of mice are marked and pretreated 1 hour prior to a second shocking. Logarithmic dose intervals are utilized up to a maximum of 100 mg/kg. At the 100% blocking dose, 3 out of 3 pairs must be blocked from fighting.
# male mice = test: Inclined Screen (paralyzing effects); format: in vivo; details: Mus musculus; groups of 6 male mice; at least 4 hours observation; maximum dose 500 mg/kg; read-out: Inclined Screen, PD50
# Experimental: Groups of 6 male mice are given the test drug (maximum dose of 500 mg/kg) and then are left on the inclined screen at least 4 hours for observation of paralyzing effects severe enough to cause them to slide off the screen. If activity is observed, additional doses are taken until at least two are reached at which some, but not all of the animals slide off the screen. Doses at which mice fall off the screen due to toxicity or excitation are not included in the calculation of PD50.
# Toxicity (LD50) = details: in vivo, po
# Cats = test: Unanesthetized Cat (minimum symptoms, usually ataxia); format: in vivo; details: Felis catus, oral, up to three cats/dose
# Experimental: Cats are treated orally and observed for minimum symptoms-usually ataxia. One cat is used at a dose of 50 mg/kg. If activity is present, up to three cats/dose are used. Results are given as minimum effective dose.
SMILES,ED100 (mice) [mg/kg],ED50 (male mice) [mg/kg],LD50 (Toxicity (LD50)) [mg/kg],minimal effective dose (Cats) [mg/kg]
"Clc1ccc2c(c1)C(c1ccccc1Cl)=NCc1c[nH]cc1-2 [8-Chloro-6-(2-chlorophenyl)-2H,4H-pyrrolo[3,4-d][2]benzazepine]",1,400,> 1000,0.25
"CS(=O)(=O)O.Cc1[nH]cc2c1-c1ccc(Cl)cc1C(c1ccccc1F)=NC2 [8-Chloro-6-(2-fluorophenyl)-1-methyl-2H,4H-pyrrolo[3,4-d][2]benzazepine methanesulfonate]",2,400,> 1000,2.5
"Clc1ccc2c(c1)C(c1ccccc1)=NCc1c[nH]cc1-2 [8-Chloro-6-phenyl-2H,4H-pyrrolo[3,4-d][2]benzazepine]",25,400,> 1000,2.5
